According to US9315510B2, “Method and application of unsymmetrically meso-substituted porphyrins and chlorins for PDT” (Biolitec Pharma Marketing LTD, priority 2008, dated 2016):

What was measured:
[1] = test system: human colon adenocarcinoma cell line HT29; assay: Cell tests in the HT 29 cell line: photosensitizing activity, XTT cell viability; type: cell-based
Procedure: The photosensitizing activity was determined in the human colon adenocarcinoma cell line HT29. The HT29 cell lines were grown in DMEM (cc-pro GmbH) supplemented with 10% heat-inactivated fetal calf serum (FCS, cc-pro GmbH), 1% penicillin (10000 IU) and streptomycin (10000 μg/ml, cc-pro GmbH). Cells were kept as a monolayer culture in a humidified incubator (5% CO2 in air at 37° C.
(§1) A photosensitizer stock solution (2 mM) was performed in DMSO and was kept in the dark at 4° C. Further dilution was performed in RPMI 1640 medium without phenol red supplemented with 10% FCS to reach a final photosensitizer concentration of 2 or 10 μM, respectively.
(§2) 2·10^4 cells/ml were seeded in micro plates (2·10^5 cells/well). Cells were incubated with fresh medium (RPMI without phenol red) containing 10% FCS with 2 or 10 μM of the photosensitizer for 24 h before light exposure. […]
(§3) The cell viability was assessed by the XTT assay. […]
(§4) The absorbance of the samples was measured with a spectrophotometer (Bio-Kinetics Reader EL312 e; Bio-Tek Instruments Inc.) at a wavelength of 490 nm. In order to measure reference absorbance (to measure non-specific readings) a wavelength of 630-690 nm was used.

[2] = test system: rabbit synoviocyte cell line HIG-82; assay: Cell tests in the rabbit synoviocyte cell line HIG-82: photodynamic activity, XTT cell viability; type: cell-based; details: HIG82, 2 or 10 μM photosensitizer, 24 h incubation, 652 nm diode laser, 50 J/cm^2
Procedure: (§5) The mouse monocytes-macrophages cell line J774A.1 and the rabbit synoviocyte cell line HIG-82 were grown in DMEM (cc-pro GmbH) supplemented with 10% heat-inactivated fetal calf serum (FCS, cc-pro GmbH), 1% penicillin (10000 IU) and streptomycin (10 000 μg/ml, cc-pro GmbH). Cells were kept as a monolayer culture in a humidified incubator (5% CO2 in air at 37° C.).
as §1, §2, §3, §4

[3] = test system: mouse monocytes-macrophages cell line J774A.1; assay: Cell tests in the mouse macrophage cell line J774A.1: photodynamic activity, XTT cell viability; type: cell-based; details: 2 or 10 μM photosensitizer, 24 h incubation, 652 nm diode laser, 50 J/cm^2
Procedure: as §5, §1, §2, §3, §4

melting point [°C] | Compound | photodynamic activity [2] | photodynamic activity [3] | other results
– | 5,15-Bis-(4-carboxyphenyl)-10,20-dihexyl-7,8-dihydroxy-7,8-chlorin | very strong photodynamic activity | very strong photodynamic activity | photodynamic activity (photo toxicity) ([1]; HT29, 2 or 10 μM photosensitizer, 24 h incubation, 652 nm diode laser, 100 mW/cm^2 (50 J/cm^2), XTT 24 h after irradiation): very strong photodynamic activity; dark toxicity (DT) and photo toxicity ([1]; HT 29 cell line, cell culture experiments (FIG. 4A)): excellent properties
113 | CCCCCCCCCCCCCc1c2nc(c(CCCCCCCCCCCCC)c3ccc([nH]3)c(-c3cccc(O)c3)c3nc(c(-c4cccc(O)c4)c4ccc1[nH]4)C=C3)C=C2 [5,10-Bis-(3-hydroxyphenyl)-15,20-bis-(tridecyl)-porphyrin] | – | – | –
131 | CCCCCCc1c2nc(c(CCCCCC)c3ccc([nH]3)c(-c3ccc(C(=O)OC)cc3)c3nc(c(-c4ccc(C(=O)OC)cc4)c4ccc1[nH]4)C=C3)C=C2 [5,10-Dihexyl-15,20-bis-(4-methoxycarbonylphenyl)-porphyrin] | – | – | –
133 | CCCCCCCCCCCCCc1c2nc(c(-c3cccc(O)c3)c3ccc([nH]3)c(CCCCCCCCCCCCC)c3nc(c(-c4cccc(O)c4)c4ccc1[nH]4)C=C3)C=C2 [5,15-Bis-(3-hydroxyphenyl)-10,20-bis-(tridecyl)-porphyrin] | – | – | –
238 | CCCCCCc1c2nc(c(-c3ccc(C(=O)OC)cc3)c3ccc([nH]3)c(CCCCCC)c3nc(c(-c4ccc(C(=O)OC)cc4)c4ccc1[nH]4)C=C3)C=C2 [5,15-Dihexyl-10,20-bis-(4-methoxycarbonylphenyl)-porphyrin] | – | – | –
– | CCCCCCc1c2nc(c(-c3ccc(C(=O)O)cc3)c3ccc([nH]3)c(-c3ccc(C(=O)O)cc3)c3nc(c(CCCCCC)c4ccc1[nH]4)C(O)C3O)C=C2 (stereo not shown) [5,20-Bis-(4-carboxyphenyl)-10,15-dihexyl-7,8-dihydroxy-7,8-chlorin] | very strong photodynamic activity | very strong photodynamic activity | –
